Data: patent publication US20230181674A1, “ALLERGEN PROTECTION AGAINST URUSHIOLS” (BEIERSDORF AG, priority 2020, published 2023)

Assay: direct peptide reactivity assay (DPRA), in-chemico, unbound peptide detected with Ellman's reagent
Conditions: 24 h reaction; allergen 5 mM, peptide 0.5 mM; absorbance at 415 nm with DTNB; urushiol structures I-V; n = 3; FIG. 2
Method: The absorbance is plotted on the y-axis. The peptide-allergen reactions were realized according to a direct peptide reactivity assay. The test is referred to as the in-chemico method, that is to say no cells are used, but a chemical reaction is carried out.
The direct peptide reaction assay (DPRA) is an OECD-validated test method.
The native, still-unbound peptide is detected by reaction with Ellman’s reagent and corresponding absorbance measurement. The direct peptide reactivity assay (DPRA) is a chemical method for predicting epidermal protein binding. DPRA uses for example HPLC to measure the depletion of peptides in solution after exposure to test chemicals.
RFAACAA was selected as an example of a peptide of the invention.
In the DPRA method, the absorbance at 415 nm is determined as the measured variable.
The allergen concentration is in the investigations carried out a standard 5 mM and thus 10 times the concentration of the peptide used (0.5 mM).
The reaction courses shown were determined colorimetrically through the reaction of the peptide with Ellmann’s reagent in a photometer. In this reaction, DTNB ((5,5′-dithiobis-2-nitrobenzoic acid, Ellmann’s reagent) is cleaved and attached to the SH residue of the amino acid cysteine of the peptides of the invention (RFAACAA).
The SH radical is at the same time the reactive binding site of the peptide with the allergens. […]

| Substance | reactivity of peptides with urushiol allergens (fall in peptide, protective activity) |
| --- | --- |
| RFAACAA [Arg Phe Ala Ala Cys Ala Ala] | very high reactivity |
| acetyl-arginine-phenylalanine-alanine-alanine-cysteine-alanine-alanine [Ac-RFAACAA] | very high reactivity |
